Results as given in article PMC6934184, “Selective DNA-PKcs inhibition extends the therapeutic index of localized radiotherapy and chemotherapy” (The Journal of Clinical Investigation, 2019).

Target: T1, RPS6KA2 (RSK3) (Homo sapiens, UniProt Q15349)
T1 construct: purchased Thermo Fisher Scientific (Life Technologies) SelectScreen
Assay: SelectScreen Z'LYTE
Type: biochemical
Procedure, shortened: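 NU5455 was profiled across the SelectScreen Broad panel of kinase activity and binding assays. Z'LYTE reactions such as CSF1R ran at apparent Km ATP, while the Adapta CAMK1 assay used ATP listed as 10. Values are given as percent.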

T1 sequence (Q15349 whole entry): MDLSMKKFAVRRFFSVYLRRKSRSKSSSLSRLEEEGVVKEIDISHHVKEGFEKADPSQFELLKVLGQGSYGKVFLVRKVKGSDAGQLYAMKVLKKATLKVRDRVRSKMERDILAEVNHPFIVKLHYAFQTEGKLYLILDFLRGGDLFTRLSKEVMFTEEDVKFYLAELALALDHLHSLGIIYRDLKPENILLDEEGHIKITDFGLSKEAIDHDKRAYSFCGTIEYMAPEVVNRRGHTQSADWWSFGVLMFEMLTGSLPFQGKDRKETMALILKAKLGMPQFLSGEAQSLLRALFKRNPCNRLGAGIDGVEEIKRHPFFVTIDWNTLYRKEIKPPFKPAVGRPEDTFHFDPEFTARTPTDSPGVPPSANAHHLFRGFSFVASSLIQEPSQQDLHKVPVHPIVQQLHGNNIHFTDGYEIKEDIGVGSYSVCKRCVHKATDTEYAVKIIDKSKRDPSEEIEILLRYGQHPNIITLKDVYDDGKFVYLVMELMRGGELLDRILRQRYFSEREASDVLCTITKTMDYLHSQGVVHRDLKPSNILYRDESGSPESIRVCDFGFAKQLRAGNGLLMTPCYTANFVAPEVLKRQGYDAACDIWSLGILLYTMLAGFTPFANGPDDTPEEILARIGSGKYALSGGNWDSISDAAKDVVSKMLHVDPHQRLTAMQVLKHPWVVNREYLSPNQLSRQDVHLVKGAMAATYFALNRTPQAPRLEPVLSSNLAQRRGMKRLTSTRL

## CN(C(=O)CN1CCOCC1)c1ccc2sc3c(-c4cccc5c(=O)cc(N6CC7CCC(C6)O7)oc45)cccc3c2c1 [NU5455]
  inhibition at 1 µM: 10.8%
